`N=C(Nc1ccccc1)Nc1ccccc1` showed a solubility (mole fraction) (in acetone, 273.15 K) of 0.0433, a solubility (mole fraction) (in acetone, 275.65 K) of 0.0468 and a solubility (mole fraction) (in acetone, 278.15 K) of 0.0508. It also gave a solubility (mole fraction) (in acetone, 280.65 K) of 0.0554, a solubility (mole fraction) (in acetone, 283.15 K) of 0.0599 and a solubility (mole fraction) (in acetone, 285.65 K) of 0.0648. The solubility (mole fraction) (in acetone, 288.15 K) was 0.07, the solubility (mole fraction) (in acetone, 290.65 K) was 0.0751 and the solubility (mole fraction) (in acetone, 293.15 K) was 0.0802. The solubility (mole fraction) (in acetone, 295.65 K) was 0.0862, the solubility (mole fraction) (in acetone, 298.15 K) was 0.0928 and the solubility (mole fraction) (in acetone, 300.65 K) was 0.0993. It also gave a solubility (mole fraction) (in acetone, 303.15 K) of 0.106, a solubility (mole fraction) (in acetone, 305.65 K) of 0.113 and a solubility (mole fraction) (in acetone, 308.15 K) of 0.12. It also gave a solubility (mole fraction) (in acetone, 310.65 K) of 0.128, a solubility (mole fraction) (in acetone, 313.15 K) of 0.137 and a solubility (mole fraction) (in acetonitrile, 273.15 K) of 0.00828. The solubility (mole fraction) (in acetonitrile, 275.65 K) was 0.00909, the solubility (mole fraction) (in acetonitrile, 278.15 K) was 0.0101 and the solubility (mole fraction) (in acetonitrile, 280.65 K) was 0.0111. For the same compound, the solubility (mole fraction) (in acetonitrile, 283.15 K) was 0.0122, the solubility (mole fraction) (in acetonitrile, 285.65 K) was 0.0134 and the solubility (mole fraction) (in acetonitrile, 288.15 K) was 0.0147. The solubility (mole fraction) (in acetonitrile, 290.65 K) was 0.0161, the solubility (mole fraction) (in acetonitrile, 293.15 K) was 0.0179 and the solubility (mole fraction) (in acetonitrile, 295.65 K) was 0.0197. It also gave a solubility (mole fraction) (in acetonitrile, 298.15 K) of 0.0214, a solubility (mole fraction) (in acetonitrile, 300.65 K) of 0.0234 and a solubility (mole fraction) (in acetonitrile, 303.15 K) of 0.0254. It also gave a solubility (mole fraction) (in acetonitrile, 305.65 K) of 0.0278, a solubility (mole fraction) (in acetonitrile, 308.15 K) of 0.0303 and a solubility (mole fraction) (in acetonitrile, 310.65 K) of 0.0331. It also gave a solubility (mole fraction) (in acetonitrile, 313.15 K) of 0.036, a solubility (mole fraction) (in ethanol, 273.15 K) of 0.0144 and a solubility (mole fraction) (in ethanol, 275.65 K) of 0.0156. For the same compound, the solubility (mole fraction) (in ethanol, 278.15 K) was 0.017, the solubility (mole fraction) (in ethanol, 280.65 K) was 0.0184 and the solubility (mole fraction) (in ethanol, 283.15 K) was 0.0199. For the same compound, the solubility (mole fraction) (in ethanol, 285.65 K) was 0.0217, the solubility (mole fraction) (in ethanol, 288.15 K) was 0.0235 and the solubility (mole fraction) (in ethanol, 290.65 K) was 0.0253. It also gave a solubility (mole fraction) (in ethanol, 293.15 K) of 0.0273, a solubility (mole fraction) (in ethanol, 295.65 K) of 0.0292 and a solubility (mole fraction) (in ethanol, 298.15 K) of 0.0315. For the same compound, the solubility (mole fraction) (in ethanol, 300.65 K) was 0.0337, the solubility (mole fraction) (in ethanol, 303.15 K) was 0.0363 and the solubility (mole fraction) (in ethanol, 305.65 K) was 0.039. The solubility (mole fraction) (in ethanol, 308.15 K) was 0.0419, the solubility (mole fraction) (in ethanol, 310.65 K) was 0.0448 and the solubility (mole fraction) (in ethanol, 313.15 K) was 0.0483. The solubility (mole fraction) (in ethyl acetate, 273.15 K) was 0.0278, the solubility (mole fraction) (in ethyl acetate, 275.65 K) was 0.03 and the solubility (mole fraction) (in ethyl acetate, 278.15 K) was 0.0325. It also gave a solubility (mole fraction) (in ethyl acetate, 280.65 K) of 0.0347, a solubility (mole fraction) (in ethyl acetate, 283.15 K) of 0.0372 and a solubility (mole fraction) (in ethyl acetate, 285.65 K) of 0.0401. It also gave a solubility (mole fraction) (in ethyl acetate, 288.15 K) of 0.0435, a solubility (mole fraction) (in ethyl acetate, 290.65 K) of 0.0463 and a solubility (mole fraction) (in ethyl acetate, 293.15 K) of 0.0496. For the same compound, the solubility (mole fraction) (in ethyl acetate, 295.65 K) was 0.053, the solubility (mole fraction) (in ethyl acetate, 298.15 K) was 0.0566 and the solubility (mole fraction) (in ethyl acetate, 300.65 K) was 0.0603. For the same compound, the solubility (mole fraction) (in ethyl acetate, 303.15 K) was 0.0641, the solubility (mole fraction) (in ethyl acetate, 305.65 K) was 0.0678 and the solubility (mole fraction) (in ethyl acetate, 308.15 K) was 0.0719. For the same compound, the solubility (mole fraction) (in ethyl acetate, 310.65 K) was 0.0763, the solubility (mole fraction) (in ethyl acetate, 313.15 K) was 0.0814 and the solubility (mole fraction) (in isobutanol, 273.15 K) was 0.0124. It also gave a solubility (mole fraction) (in isobutanol, 275.65 K) of 0.0135, a solubility (mole fraction) (in isobutanol, 278.15 K) of 0.0147 and a solubility (mole fraction) (in isobutanol, 280.65 K) of 0.016. For the same compound, the solubility (mole fraction) (in isobutanol, 283.15 K) was 0.0176, the solubility (mole fraction) (in isobutanol, 285.65 K) was 0.0189 and the solubility (mole fraction) (in isobutanol, 288.15 K) was 0.0208. The solubility (mole fraction) (in isobutanol, 290.65 K) was 0.0224, the solubility (mole fraction) (in isobutanol, 293.15 K) was 0.0244 and the solubility (mole fraction) (in isobutanol, 295.65 K) was 0.0265. The solubility (mole fraction) (in isobutanol, 298.15 K) was 0.0286, the solubility (mole fraction) (in isobutanol, 300.65 K) was 0.0311 and the solubility (mole fraction) (in isobutanol, 303.15 K) was 0.0333. It also gave a solubility (mole fraction) (in isobutanol, 305.65 K) of 0.0359, a solubility (mole fraction) (in isobutanol, 308.15 K) of 0.0384 and a solubility (mole fraction) (in isobutanol, 310.65 K) of 0.0412. The solubility (mole fraction) (in isobutanol, 313.15 K) was 0.0446, the solubility (mole fraction) (in n-butanol, 273.15 K) was 0.018 and the solubility (mole fraction) (in n-butanol, 275.65 K) was 0.0194. The solubility (mole fraction) (in n-butanol, 278.15 K) was 0.021, the solubility (mole fraction) (in n-butanol, 280.65 K) was 0.0227 and the solubility (mole fraction) (in n-butanol, 283.15 K) was 0.0245. It also gave a solubility (mole fraction) (in n-butanol, 285.65 K) of 0.0266, a solubility (mole fraction) (in n-butanol, 288.15 K) of 0.0286 and a solubility (mole fraction) (in n-butanol, 290.65 K) of 0.0306. The solubility (mole fraction) (in n-butanol, 293.15 K) was 0.0329, the solubility (mole fraction) (in n-butanol, 295.65 K) was 0.0352 and the solubility (mole fraction) (in n-butanol, 298.15 K) was 0.0377. It also gave a solubility (mole fraction) (in n-butanol, 300.65 K) of 0.0405, a solubility (mole fraction) (in n-butanol, 303.15 K) of 0.0431 and a solubility (mole fraction) (in n-butanol, 305.65 K) of 0.0462. The solubility (mole fraction) (in n-butanol, 308.15 K) was 0.0494, the solubility (mole fraction) (in n-butanol, 310.65 K) was 0.0527 and the solubility (mole fraction) (in n-butanol, 313.15 K) was 0.0562. The solubility (mole fraction) (in n-propanol, 273.15 K) was 0.0159, the solubility (mole fraction) (in n-propanol, 275.65 K) was 0.0174 and the solubility (mole fraction) (in n-propanol, 278.15 K) was 0.0189. It also gave a solubility (mole fraction) (in n-propanol, 280.65 K) of 0.0204, a solubility (mole fraction) (in n-propanol, 283.15 K) of 0.0222 and a solubility (mole fraction) (in n-propanol, 285.65 K) of 0.0238. It also gave a solubility (mole fraction) (in n-propanol, 288.15 K) of 0.0259, a solubility (mole fraction) (in n-propanol, 290.65 K) of 0.0278 and a solubility (mole fraction) (in n-propanol, 293.15 K) of 0.0301. The solubility (mole fraction) (in n-propanol, 295.65 K) was 0.0324, the solubility (mole fraction) (in n-propanol, 298.15 K) was 0.035 and the solubility (mole fraction) (in n-propanol, 300.65 K) was 0.0379. It also gave a solubility (mole fraction) (in n-propanol, 303.15 K) of 0.0406, a solubility (mole fraction) (in n-propanol, 305.65 K) of 0.0435 and a solubility (mole fraction) (in n-propanol, 308.15 K) of 0.0465. It also gave a solubility (mole fraction) (in n-propanol, 310.65 K) of 0.0499, a solubility (mole fraction) (in n-propanol, 313.15 K) of 0.0537 and a solubility (mole fraction) (in toluene, 273.15 K) of 0.00132. For the same compound, the solubility (mole fraction) (in toluene, 275.65 K) was 0.00154, the solubility (mole fraction) (in toluene, 278.15 K) was 0.00172 and the solubility (mole fraction) (in toluene, 280.65 K) was 0.00195. It also gave a solubility (mole fraction) (in toluene, 283.15 K) of 0.00219, a solubility (mole fraction) (in toluene, 285.65 K) of 0.00249 and a solubility (mole fraction) (in toluene, 288.15 K) of 0.00282. It also gave a solubility (mole fraction) (in toluene, 290.65 K) of 0.00316, a solubility (mole fraction) (in toluene, 293.15 K) of 0.00354 and a solubility (mole fraction) (in toluene, 295.65 K) of 0.00389. The solubility (mole fraction) (in toluene, 298.15 K) was 0.00432, the solubility (mole fraction) (in toluene, 300.65 K) was 0.00476 and the solubility (mole fraction) (in toluene, 303.15 K) was 0.00528. The solubility (mole fraction) (in toluene, 305.65 K) was 0.00584, the solubility (mole fraction) (in toluene, 308.15 K) was 0.00641 and the solubility (mole fraction) (in toluene, 310.65 K) was 0.00709. The solubility (mole fraction) (in toluene, 313.15 K) was 0.00771.

— BigSolDB 2.1
